Each compound was assayed on LXRα and/or LXRβ (assay: Co-transfection assay (LXRE luciferase reporter, CV-1 cells)). Settings: read-out: activity (IC50 or EC50 for LXR), tested as described in Example 33, isoform not specified.
Format: cell-based, human
Outline: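 Luciferase signal measures LXR-RXR transcriptional activation in transiently transfected CV-1 cells carrying human LXRα or LXRβ, RXRα and a single-copy LXRE reporter. Cells were exposed to compound for 20 h at 37 °C with at most 1% DMSO, using 10 μM final for screening. Potency was derived from 4-parameter fits of 8-point, half-log dose curves averaged over ≥3 runs, and efficacy was expressed as % of a reference agonist.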

| SMILES | EC50 [nM] |
| --- | --- |
| CCS(=O)(=O)c1cccc(-c2ccc(-n3cc(C(C)(C)O)nc3C(C)(C)c3cccc(Cl)c3Cl)cc2)c1 [Example 22, 2-(2-(2-(2,3-dichloro-phenyl)propan-2-yl)-1-(3′-(ethylsulfonyl)biphenyl-4-yl)-1H-imidazol-4-yl)propan-2-ol] | < 1000 |
| CCS(=O)(=O)c1cccc(-c2ccc(-n3cc(C(C)(C)O)nc3CCc3ccccc3Cl)cc2)c1 [Example 28, 2-(2-(2-chlorophenethyl)-1-(3′-(ethylsulfonyl)biphenyl-4-yl)-1H-imidazol-4-yl)propan-2-ol] | < 1000 |

Same assay, conditions: tested as described in Example 33; IC50 or EC50 for LXRα and/or LXRβ, isoform not specified; read-out: activity (IC50 or EC50 for LXR)

| SMILES | IC50 or EC50 (potency, activation or inhibition) [nM] |
| --- | --- |
| CC(C)(O)c1cn(-c2c(Cl)cccc2Cl)c(-c2ccc(-c3cccc(S(C)(=O)=O)c3)cc2)n1 [Example 63, 2-(1-(2,6-dichlorophenyl)-2-(3′-(methylsulfonyl)biphenyl-4-yl)-1H-imidazol-4-yl)propan-2-ol] | < 1000 |
| Cc1cc(-c2cccc(S(C)(=O)=O)c2)ccc1-n1cc(C(C)(C)O)nc1-c1c(C)cccc1Cl [Example 191, 2-(2-(2-chloro-6-methylphenyl)-1-(3-methyl-3′-(methylsulfonyl)biphenyl-4-yl)-1H-imidazol-4-yl)propan-2-ol] | < 1000 |
| CC(C)(O)c1cn(-c2ccc(-c3cccc(C(=O)O)c3)cc2)c(-c2ccccc2Cl)n1 [Example 395, 4′-[2-(2-chlorophenyl)-4-(1-hydroxy-1-methylethyl)-1H-imidazol-1-yl]biphenyl-3-carboxylic acid] | 1000 to 10000 |
| CC(C)(O)c1cn(-c2ccc(-c3ccc(CO)c(S(C)(=O)=O)c3)cc2Cl)c(-c2cccc3ccccc23)n1 [Example 32, 2-(1-(3-chloro-4′-(hydroxy-methyl)-3-(methylsulfonyl)biphenyl-4-yl)-2-(naphthalen-1-yl)-1H-imidazol-4-yl)propan-2-ol] | < 1000 |
| CCS(=O)(=O)c1cccc(-c2ccc(-n3cc(C(C)(C)O)nc3-c3cccc4cnccc34)c(C)c2)c1 [Example 36, 2-(1-(3′-(ethylsulfonyl)-3-methylbiphenyl-4-yl)-2-(isoquinolin-5-yl)-1H-imidazol-4-yl)propan-2-ol] | 1000 to 10000 |
| COc1ccc(-c2ccc(-n3cc(C(C)(C)O)nc3Cc3cccc(Cl)c3Cl)c(C)c2)cc1S(C)(=O)=O [Example 456, 2-(2-(2,3-dichlorobenzyl)-1-(4′-methoxy-3-methyl-3′-(methyl-sulfonyl)biphenyl-4-yl)-1H-imidazol-4-yl)propan-2-ol] | < 1000 |
| CCc1ccccc1-c1nc(C(C)(C)O)cn1-c1ccc(-c2cccc(S(C)(=O)=O)c2)cc1 [Example 93] | < 1000 |
| CCOC(=O)c1ccc(-c2ccc(-n3cc(C(C)(C)O)nc3-c3c(F)cccc3Cl)c(Cl)c2)cc1S(C)(=O)=O [Example 165, ethyl 3′-chloro-4′-(2-(2-chloro-6-fluorophenyl)-4-(2-hydroxypropan-2-yl)-1H-imidazol-1-yl)-3-(methyl-sulfonyl)biphenyl-4-carboxylate] | 1000 to 10000 |
| CC(C)(O)c1cn(-c2ccc(-c3ccc(CO)c(S(C)(=O)=O)c3)cc2)c(-c2c(F)cccc2Cl)n1 [Example 100, 2-(2-(2-chloro-6-fluorophenyl)-1-(4′-(hydroxymethyl)-3′-(methyl-sulfonyl)biphenyl-4-yl)-1H-imidazol-4-yl)propan-2-ol] | 1000 to 10000 |
| Cc1cccc(Cl)c1-c1nc(C(C)(C)O)cn1-c1ccc(-c2ccc(CO)c(S(C)(=O)=O)c2)cc1F [Example 133, 2-(2-(2-chloro-6-methylphenyl)-1-(3-fluoro-4′-(hydroxymethyl)-3′-(methylsulfonyl)biphenyl-4-yl)-1H-imidazol-4-yl)propan-2-ol] | < 1000 |
| CCNC(=O)c1cn(-c2ccc(-c3cccc(S(C)(=O)=O)c3)cc2)c(-c2c(Cl)cccc2Cl)n1 [Example 82, 2-(2,6-dichlorophenyl)-N-ethyl-1-(3′-(methylsulfonyl)biphenyl-4-yl)-1H-imidazole-4-carboxamide] | < 1000 |
| Cc1cc(-c2cccc(S(C)(=O)=O)c2)cc(Cl)c1-n1cc(C(C)(C)O)nc1-c1ccccc1Cl [Example 168, 2-(1-(3-chloro-5-methyl-3′-(methyl-sulfonyl)biphenyl-4-yl)-2-(2-chlorophenyl)-1H-imidazol-4-yl)propan-2-ol] | 1000 to 10000 |
| Cc1c(Cl)cccc1-c1nc(C(C)(C)O)cn1-c1ccc(-c2cccc(S(C)(=O)=O)c2)cc1Cl [Example 143, 2-(2-(3-chloro-2-methylphenyl)-1-(3-chloro-3′-(methylsulfonyl)biphenyl-4-yl)-1H-imidazol-4-yl)propan-2-ol] | < 1000 |
| CCOC(=O)c1cn(-c2ccc(Br)cc2)c(-c2ccccc2Cl)n1 [Example 377, ethyl 1-(4-bromophenyl)-2-(2-chlorophenyl)-1H-imidazole-4-carboxylate] | 1000 to 10000 |
| Cc1cc(-c2cccc(S(C)(=O)=O)c2)ccc1-n1cc(C(C)(C)O)nc1-c1cccc2cnccc12 [Example 35, 2-(2-(isoquinolin-5-yl)-1-(3-methyl-3′-(methylsulfonyl)biphenyl-4-yl)-1H-imidazol-4-yl)propan-2-ol] | 1000 to 10000 |
| CCS(=O)(=O)c1cccc(-c2ccc(-n3cc(C(C)(C)O)nc3-c3ccccc3Cl)cc2)c1 [Example 415, 2-{2-(2-chlorophenyl)-1-[3′-(ethylsulfonyl)biphenyl-4-yl]-1H-imidazol-4-yl}propan-2-ol] | 1000 to 10000 |
| CC(C)(O)c1cn(-c2ccc(-c3cc(S(C)(=O)=O)ccc3Cl)cc2Cl)c(-c2c(Cl)cccc2Cl)n1 [Example 467, 2-(1-(2′,3-dichloro-5′-(methyl-sulfonyl)biphenyl-4-yl)-2-(2,6-dichlorophenyl)-1H-imidazol-4-yl)propan-2-ol] | < 1000 |
| Cc1cc(-c2cccc(S(C)(=O)=O)c2)ccc1-n1cc(C(C)(C)O)nc1-c1cccs1 [Example 41] | 1000 to 10000 |
| CC(C)(O)c1nc(-c2ccccc2C(F)(F)F)n(-c2ccc(-c3cccc(S(C)(=O)=O)c3)cc2)c1Br [Example 402, 2-{5-bromo-1-[3′-(methyl-sulfonyl)biphenyl-4-yl]-2-[2-(trifluoro-methyl)phenyl]-1H-imidazol-4-yl}propan-2-ol] | < 1000 |
| CC(C)(O)c1cn(-c2ccc(-c3cccc(S(N)(=O)=O)c3)cc2)c(-c2ccccc2Cl)n1 [Example 384, 4′-[2-(2-chlorophenyl)-4-(1-hydroxy-1-methylethyl)-1H-imidazol-1-yl]biphenyl-3-sulfonamide] | 1000 to 10000 |
| Cc1cc(-c2cc(S(C)(=O)=O)ccc2Cl)ccc1-n1cc(C(C)(C)O)nc1Cc1cccc(Cl)c1Cl [Example 468, 2-(1-(2′-chloro-3-methyl-5′-(methylsulfonyl)biphenyl-4-yl)-2-(2,3-dichlorobenzyl)-1H-imidazol-4-yl)propan-2-ol] | < 1000 |
| CC(C)(O)c1cn(-c2ccc(-c3ccc(CO)c(S(C)(=O)=O)c3)cc2F)c(-c2cccc(F)c2Cl)n1 [Example 125, 2-(2-(2-chloro-3-fluorophenyl)-1-(3-fluoro-4′-(hydroxymethyl)-3′-(methylsulfonyl)biphenyl-4-yl)-1H-imidazol-4-yl)propan-2-ol] | < 1000 |
| CC(C)(O)c1nc(-c2ccc(-c3cccc(S(C)(=O)=O)c3)cc2Cl)n(-c2c(Cl)cccc2Cl)c1Cl [Example 445, 2-(5-chloro-2-(3-chloro-3′-(methylsulfonyl)biphenyl-4-yl)-1-(2,6-dichlorophenyl)-1H-imidazol-4-yl)propan-2-ol] | < 1000 |
| COc1ccc(-c2ccc(-n3cc(C(C)(C)O)nc3-c3ccccc3C(F)(F)F)cc2)cc1S(C)(=O)=O [Example 399, 2-{1-[4′-(methyloxy)-3′-(methyl-sulfonyl)biphenyl-4-yl]-2-[2-(trifluoromethyl)phenyl]-1H-imidazol-4-yl}propan-2-ol] | 1000 to 10000 |
| CCS(=O)(=O)c1cccc(-c2ccc(-n3cc(C(C)(C)O)nc3-c3cccc(Cl)c3C)c(C)c2)c1 [Example 190, 2-(2-(3-chloro-2-methylphenyl)-1-(3′-(ethylsulfonyl)-3-methylbiphenyl-4-yl)-1H-imidazol-4-yl)propan-2-ol] | < 1000 |
| Cc1cc(-c2cccc(S(C)(=O)=O)c2)ccc1-c1nc(C(C)(C)O)cn1-c1c(Cl)cccc1Cl [Example 197, 2-(1-(2,6-dichlorophenyl)-2-(3-methyl-3′-(methylsulfonyl)biphenyl-4-yl)-1H-imidazol-4-yl)propan-2-ol] | < 1000 |
| CON(C)C(=O)c1ccc(-c2ccc(-n3cc(C(C)(C)O)nc3-c3c(F)cccc3Cl)c(Cl)c2)cc1S(C)(=O)=O [Example 448, 3′-chloro-4′-(2-(2-chloro-6-fluorophenyl)-4-(2-hydroxypropan-2-yl)-1H-imidazol-1-yl)-N-methoxy-N-methyl-3-(methylsulfonyl)biphenyl-4-carboxamide] | > 10000 |
| CC(C)(O)c1cn(-c2ccc(-c3cccc(S(C)(=O)=O)c3)nc2)c(-c2ccccc2C(F)(F)F)n1 [Example 421, 2-(1-{6-[3-(methyl-sulfonyl)phenyl]pyridin-3-yl}-2-[2-(trifluoromethyl)phenyl]-1H-imidazol-4-yl)propan-2-ol] | 1000 to 10000 |
| CCS(=O)(=O)c1cccc(-c2ccc(-n3cc(C(C)(C)O)nc3-c3c(F)cccc3Cl)c(Cl)c2)c1 [Example 146, 2-(1-(3-chloro-3′-(ethyl-sulfonyl)biphenyl-4-yl)-2-(2-chloro-6-fluorophenyl)-1H-imidazol-4-yl)propan-2-ol] | < 1000 |
